For one assay, the system named is Staphylococcus epidermidis. Briefly: Anti-microbial performance test: growth inhibition of axillary isolate of S. epidermidis in semi-synthetic medium (OD 600 nm). The class given is cell-based. To be noted: concentration of 3×10^−6 mol.dm^−3 or less. Here is the method: An axillary isolate of Staphylococcus epidermidis was grown overnight in 100 ml of tryptone soy broth (TSB, Oxoid Ltd). 10 ml of this culture was taken and subjected to centrifugation. The separated cells were re-suspended in 10 ml of phosphate buffered saline and the centrifugation procedure repeated. The washed cells were re-suspended in 10 ml of phosphate buffered saline to give the inoculum. 100 μl of the inoculum was added to 100 ml of semi-synthetic medium (SSM) containing (NH4)2SO4 (0.066 g),MgSO4.7H2O (0.012 g), KCl (0.1 g), KH2PO4 (0.27 g), Na2HPO4 (1.43 g), thiamin (0.1 mg), biotin (0.05 mg), Peptone P (0.05 g), and glucose (2.0 mmole) which had been previously sterilised by autoclaving at 121° C. for 20 minutes. The pH of the SSM was adjusted to 6.7 with HCl after sterilisation, prior to addition of the inoculum. This control medium was utilised in all of the in vitro inhibition studies. The chelator-containing test media were prepared in a similar manner, the chelator being introduced at a concentration of 3×10^−6 mol.dm^−3 before the pH adjustment with HCl.
100 μl of the S. epidermidis inoculum was introduced into the control medium and into test media containing the chelators indicated in Table 2. The cultures were inoculated at 37° C. (with agitation at 200 rpm) for 16 hours, and the optical density of the cultures measured at 600 nm to determine the extent of bacterial growth. By comparison of the optical density of the culture in the presence of chelating agent, to that of the control, the percentage inhibition of growth was established. (Optical density measurements were made on 1 in 4 dilutions of the cultures with 0.9% (w/v) saline, using 1 cm path length cuvettes, on a Pharmacia Biotech Ultrospec 200 Spectrophotometer.)
T1 sequence (P02787 20-698): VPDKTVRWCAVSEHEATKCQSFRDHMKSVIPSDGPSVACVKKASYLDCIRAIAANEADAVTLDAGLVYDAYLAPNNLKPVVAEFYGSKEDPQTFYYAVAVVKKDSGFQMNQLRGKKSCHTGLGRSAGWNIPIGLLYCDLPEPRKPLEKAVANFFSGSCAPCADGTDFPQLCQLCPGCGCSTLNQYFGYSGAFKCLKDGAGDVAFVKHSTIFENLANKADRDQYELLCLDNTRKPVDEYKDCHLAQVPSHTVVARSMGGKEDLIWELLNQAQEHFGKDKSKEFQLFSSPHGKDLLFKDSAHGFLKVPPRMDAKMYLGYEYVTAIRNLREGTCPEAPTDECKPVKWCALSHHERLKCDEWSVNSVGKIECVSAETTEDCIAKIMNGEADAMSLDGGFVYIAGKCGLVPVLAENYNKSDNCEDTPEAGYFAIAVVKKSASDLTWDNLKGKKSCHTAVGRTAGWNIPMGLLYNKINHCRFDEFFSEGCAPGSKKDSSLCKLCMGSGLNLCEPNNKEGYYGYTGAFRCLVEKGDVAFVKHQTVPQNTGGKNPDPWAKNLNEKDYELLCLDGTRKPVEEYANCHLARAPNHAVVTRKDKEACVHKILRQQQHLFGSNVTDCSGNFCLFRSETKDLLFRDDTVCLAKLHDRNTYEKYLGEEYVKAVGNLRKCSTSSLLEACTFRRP
As for `O=C(O)CN(CC(=O)O)[C@@H]1CCCC[C@H]1N(CC(=O)O)CC(=O)O` (relative stereo) [CDTA, trans-1,2-diaminocyclohexane-N,N,N′,N′-tetraacetic acid], the “Significant inhibition of growth of S. epidermidis (at least 30%)” value (“Significant inhibition … (at least 30%)” for short) is on record as “are not”. For `O=C(O)CN(CCN(CC(=O)O)CC(=O)O)CCN(CC(=O)O)CC(=O)O` [DTPA, diethylenetriaminepentaacetic acid], the “Significant inhibition … (at least 30%)” value is listed as “capable of achieving significant inhibition”. Take `O=C(O)CN(CCN(CC(=O)O)CC(=O)O)CC(=O)O` [EDTA, ethylenediaminetetraacetic acid]: the “Significant inhibition … (at least 30%)” value was “are not”.

Regarding `O=C(O)CN(CCN(CCN(CC(=O)O)CC(=O)O)CC(=O)O)CCN(CC(=O)O)CC(=O)O` [TTHA, triethylenetetraaminehexaacetic acid], the “Significant inhibition … (at least 30%)” value is “capable of achieving significant inhibition”.

Another assay concerns the target T1, human diferric transferrin (Homo sapiens, UniProt P02787).
T1 construct: purchased Sigma Chemicals
Nature of the assay: Transferrin dissociation promotion test (FerroZine, absorption at 562 nm). The class given is biochemical. To be noted: after 24 hours, 10 mmol.l^−1 test material, 37° C., pH 6.5, control 0.111. The protocol:
2.7 g.l^−1 human diferric transferrin (ex Sigma Chemicals) is incubated at 37° C. in 50 mM HEPES (N-[2-hydroxyethyl]piperazine-N-[2-ethanesulfonic acid]) buffer adjusted to pH 6.5 with sodium hydroxide, together with 0.115 g.l^−1 FerroZine (ex Sigma Chemicals; 3-(2-pyridyl)-5,6-bis(4-phenylsulfonic acid)-1,2,4-triazine, monosodium salt) and 10 mmol.l^−1 of the test material, if water soluble, or 2.5 g.l^−1 of the test material, added as a finely ground powder, if water insoluble.
After 24 hours, the extent of transferrin dissociation is estimated by eye or spectrophotometrically. Transferrin dissociation promoters lead a purple colouration; in particular, they lead to an absorption at 562 nm of 0.15 or greater. This purple colouration is the result of the production of iron(II) tri(FerroZine) complex. The molar concentration of this complex is equal to the molar concentration of iron dissociated from the transferrin.
2.7 g.l^−1 human diferric transferrin (ex Sigma Chemicals) was incubated at 37° C. in 50 mM HEPES (N-[2-hydroxyethyl]piperazine-N′-[2-ethanesulfonic acid]) buffer adjusted to pH 6.5 with sodium hydroxide, together with 0.115 g.l^−1 FerroZine (ex Sigma Chemicals; 3-(2-pyridyl)-5,6-bis(4-phenylsulfonic acid)-1,2,4-triazine, monosodium salt) and 10 mmol.l^−1 of the test material.
After 24 hours, the extent of transferrin dissociation was estimated spectrophotometrically by measuring absorption at 562 nm (vide supra). The data (see Table 5) illustrate the enhanced transferrin dissociation occurring in the presence of the indicated test materials.
`O=S(=O)(O)c1cc(O)c(O)c(S(=O)(=O)O)c1` [Iron, 4,5-dihydroxy-1,3-benzenedisulfonic acid] showed an Absorption of 0.425. Still for that read-out and setting: for `O=C(O)c1ccc(O)c(O)c1` [Protocatechuic acid] the value was 0.391; for `O=C(O)c1ccccc1O` [Salicylic acid], 0.305.

The record behind these values is US6503490B2, “Deodorant products” (Unilever Home & Personal Care USA, division of Conopco, Inc., priority 2000, dated 2003).
